Literature values in US20230018600A1, “CONTROLLED RELEASE FORMULATIONS COMPRISING DROTAVERINE OR SALT THEREOF” (priority 2020, published 2023).

Legend:
[1] = not given; remark: listed apart in the source
[2] = system: human isolated detrusor muscle; details: induced plateau of contraction

Compound: CCOc1ccc(/C=C2\NCCc3cc(OCC)c(OCC)cc32)cc1OCC [Drotaverine, (Z)-1-(3,4-diethoxybenzylidene)-6,7-diethoxy-1,2,3,4-tetrahydroisoquinoline]
- oral LD50: > 1000 mg/Kg body weight
- renal clearance as share of total plasma clearance ([1]; IR Drotaverine Tablets 80 mg): 0.31+/−0.13%
- onset of action ([1]; after oral administration of 80 mg strength IR tablets): ≤ 12 min
- drug absorption from small intestine ([1]; oral, 80 mg IR tablets): ~90%
- absolute bioavailability, range ([1]; oral, IR tablets 80 mg, subject-dependent range): 24.5-91%
- relaxation of human detrusor muscle contraction [2]: significant concentration-dependent relaxation
